Data published in the supplement of paper PMC11061612.

Experiments:
Experiment in all cases: combination Emax (second highest fraction inhibited in the dose matrix, 72 h); higher = more inhibition; extreme values may be limits of the assay
[1] = system: TE-4 (Esophageal Squamous Cell Carcinoma)
In short: (§1)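 Cell lines in DMEM/F12 or RPMI with 10% FBS were plated in 1536-well plates, held 24 hours at 37°C, 5% CO2, then given two-drug dose matrices for 72 hours (DMSO typically 0.2%). Viability was read by CellTiter-Glo 2.0 luminescence and scaled as inhibition from 0 (vehicle wells) to 1 (blank wells). Combination Emax is the second-highest inhibition in the matrix; Bliss excess is observed combination effect minus expected EA + EB − EA·EB, EA and EB being single-agent effects.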

[2] = system: SW626 (Colorectal Carcinoma)
In short: as §1

[3] = system: 639-V (Bladder Carcinoma)
In short: as §1

[4] = system: OVCAR-8 (Ovarian Carcinoma)
In short: as §1

[5] = system: KYSE-410 (Esophageal Squamous Cell Carcinoma)
In short: as §1

[6] = system: LB771-HNC (Head and Neck Carcinoma)
In short: as §1

[7] = system: HCC-15 (Squamous Cell Lung Carcinoma)
In short: as §1

CN(CCO)CC[C@H](CSc1ccccc1)Nc1ccc(S(=O)(=O)NC(=O)c2ccc(N3CCC([C@@H](O)c4ccccc4-c4ccc(Cl)cc4)CC3)cc2)cc1S(=O)(=O)C(F)(F)F [AZD4320] + C[C@@H](Nc1cc(F)cc(F)c1)c1cc(C(=O)N(C)C)cc2c(=O)cc(N3CCOCC3)oc12 [AZD8186] (first compound max 1 µM, 7x7, partner max 3 µM)
combination Emax [1]: 0.333 | combination Emax [2]: 0.651 | combination Emax [3]: 1 | combination Emax [4]: 0.57 | combination Emax [5]: 0.299 | combination Emax [6]: 0.264 | combination Emax [7]: 0.96
